Source: patent US5583222A, “Azepanes and their ring homologues having protein kinase inhibiting activity” (Hoffmann-La Roche Inc., priority 1994, dated 1996)
Structures can show the parent of a compound that is named as a salt.

What was measured:
protein kinase C (PKC) [1] = experiment: Inhibition of protein kinase C (PKC) (in cells), MARCKS phosphorylation in 3T3 fibroblasts; format: cell-based; settings: Fibroblast, TPA 100 nM, phosphorylation of 80 kD MARCKS protein, 37° C., read-out: Test Procedure C: IC50, inhibition of PKC in cells
Method: C: Inhibition of protein kinase C (PKC) (in cells): The intracellular protein kinase C (PKC) activity is determined in 3T3 fibroblasts by measuring the phosphorylation of a PKC-specific substrate, namely 80 kD MARCKS protein (myristoylated alanine-rich C-kinase substrate). The endogenous ATP is firstly labelled by incubating the cells at 37° C. with 80-200 μCi/ml of inorganic ^32 P-labelled phosphate. Then, the activation of the PKC is effected by phorbol ester (tetradecanoyl-phorbol 13-acetate (TPA); 100 nM). The test substances are used 15 minutes prior to TPA in dimethyl sulphoxide (DMSO)/buffer in the concentration range 0.1-100 μM. After incubation at 37° C. for 15 minutes the reaction is stopped by removing the medium and the cells are lysed by the addition of 1% Triton X-100 in phosphate buffer. The cell extract is subjected to a heat treatment (20 minutes at 90° C.) and subsequently centrifuged, whereby the MARCKS protein remains dissolved in the supernatant. This is then separated by discontinuous, one-dimensional SDS gel electrophoresis and the radioactivity in the 80 kD protein band is measured by a phosphoimager.

HaCaT-cells = experiment: Inhibition of keratinocyte proliferation a) HaCaT-cells; format: cell-based; settings: Homo sapiens, 48 hours, [3H]thymidine incorporation, read-out: Test Procedure E a: IC50, inhibition of keratinocyte proliferation
Method: (§1) E Inhibition of keratinocyte proliferation: a) HaCaT-cells (immortalised human cells line): HaCaT-cell culture is effected in medium DMEM/F12 (mixture ratio 3/1) which contains serum (FCS, 5%), epidermal growth factor (EGF), hydrocortisone, cholera toxin, insulin, L-glutamine and penicillin/streptomycin. 5000 cells in 0.2 ml of medium are used per well in microtitre plates. The test substances are diluted in dimethyl sulphoxide/(DMSO)/medium and used in the concentration range 0.01-10 μM at the start of the culture. The cells are then incubated at 37° C. for 48 hours; radioactive [^3 H]thymidine is added during the last 6 hours. After disrupting the cells with trypsin incorporated activity is measured in a scintillation counter. The inhibitory activity of the test substance is given as the micromolar concentration which is required to reduce the thymidine incorporation by 50% (IC50 [μM]).

T-lymphocyte = experiment: Inhibition of T-lymphocyte proliferation; format: cell-based; settings: human mononuclear cells, PHA 1 μg/ml, [3H]thymidine, 3rd and 4th day, read-out: Test Procedure D: IC50, inhibition of T-lymphocyte proliferation
Method: D: Inhibition of T-lymphocyte proliferation: Human mononuclear cells are isolated from venous blood of a healthy donor and a suspension of 5×10^5 cells/ml in RPMI 1640 medium, which contains 10% FCS, is prepared. The cells are stimulated with 1 μg/ml of T-cell-specific mitogen phytohaemagglutinin (PHA). 200 μl aliquots of cell suspension are treated in microtitre plates with the test substances in serial dilutions in the concentration range 0.03-10 μM. The cell proliferation is measured on the 3rd and 4th day by incubation with 1 μCi of [^3 H]thymidine during the last 6 hours of the respective day. The radioactivity taken up is measured with a liquid scintillation counter.

[2] = molecular target: cAMP-dependent protein kinase (PKA); experiment: Inhibition of cAMP-dependent protein kinase (PKA); format: biochemical; settings: partially purified PKA from swine brain; histone H1 substrate; 10 μM ATP; 2 μM cyclic AMP; pH 7.4; 32° C., 2 minutes; read-out: Test Procedure B: IC50, inhibition of PKA
Method: B: Inhibition of CAMP-dependent protein kinase (PKA): PKA activity is determined by measuring the transfer of ^32 P-labelled phosphate from ^32 P-γ-ATP (10 μM) tO histone H1 (333 μg/ml) as the substrate. Partially purified PKA from swine brain is used as the enzyme source [DEAE chromatography according to the method of U. Kikkawa et al. (Methods Enzymol. 99, 288, 1983)]. Activation of the PKA is effected by cyclic AMP (2 μM) in Tris-HCl buffer (20 mM, pH 7.4). The test substances are used in dimethyl sulphoxide (DMSO)/buffer in the concentration range 0.001-100 μM. The test is started by the addition of enzyme; after incubation at 32° C. for 2 minutes the reaction is stopped by the addition of 20% trichloroacetic acid (with 1% SDS and 1% sodium pyrophosphate). The precipitated radioactive histone protein is separated from excess ATP by filtration over nitrocellulose membranes and the radioactivity on the filter is measured in a scintillation counter. The inhibitory activity of the test substance is given as the micromolar concentration which is required to reduce the PKA activity by 50% (IC50 [μM]).

protein kinase C (PKC) [3] = experiment: Inhibition of protein kinase C (PKC) (isolated enzyme); format: biochemical; settings: partially purified PKC from swine brain; histone H1 substrate; 10 μM ATP; pH 7.4; 32° C., 2 minutes; read-out: Test Procedure A: IC50, inhibition of PKC (isolated enzyme)
Method: A: Inhibition of protein kinase C (PKC) (isolated enzyme): Protein kinase C (PKC) activity is determined by measuring the transfer of ^32 P-labelled phosphate from ^32 P-γ-ATP (10 μM)to histone H1 (200 μg/ml) as the substrate. Partially purified PKC from swine brain is used as the enzyme source [DEAE chromatography according to the method of U. Kikkawa et al. (Methods Enzymol. 99, 288, 1983)]. Activation of the PKC is effected by phospholipid vesicle prepared by ultrasound treatment of a mixture of 0.05 ml of phosphatidylserine (10 mg/ml) and 0.005 ml of diolein (10 mg/ml) in 5 ml of Tris-HCl buffer (20 mM, pH 7.4). The test substances are used in dimethyl sulphoxide (DMSO)/buffer in the concentration range 0.001-100 μM. The test is started by the addition of enzyme; after incubation at 32° C. for 2 minutes the reaction is stopped by the addition of 20% trichloroacetic acid (with 1% SDS and 1% sodium pyrophosphate). The precipitated radioactive histone protein is separated from excess ATP by filtration over nitrocellulose membranes and the radioactivity on the filter is measured in a scintillation counter. The inhibitory activity of the test substance is given as the micromolar concentration which is required to reduce the PKC activity by 50% (IC50 [μM]).

Primary keratinocytes = experiment: Inhibition of keratinocyte proliferation b) Primary keratinocytes; format: cell-based; settings: primary keratinocytes from human foreskin, 48 hours, [3H]thymidine incorporation, read-out: Test Procedure E b: IC50, inhibition of keratinocyte proliferation
Method: as §1, with “proliferation:” for “proliferation: a) HaCaT-cells (immortalised human cells line):”, “[μM]). b) Primary keratinocytes: Keratinocytes, isolated from human foreskin, are used in the primary culture up to passage 7. The culture and test conditions are identical with those of the HaCaT-cells with the exception of the use of 10000 cells per well.” for “[μM]).”

| Compound | IC50 (protein kinase C (PKC) [1]) [nM] | IC50 (HaCaT-cells) [nM] | IC50 (T-lymphocyte) [nM] | IC50 [2] [nM] | IC50 (protein kinase C (PKC) [3]) [nM] | IC50 (Primary keratinocytes) [nM] |
| --- | --- | --- | --- | --- | --- | --- |
| COc1ccc(O)c(C(=O)c2ccc(C(=O)O[C@@H]3CCCNC[C@H]3NC(=O)c3cc(C)c(O)c(C)c3)cc2)c1F [Example 20, 4-(2-Fluoro-6-hydroxy-3-methoxy-benzoyl)-benzoic acid (3R,4R)-3-(4-hydroxy-3,5-dimethyl-benzoylamino)-azepan-4-yl ester hydrochloride (1:1)] | 340 | 3000 to 10000 | 100 to 6000 | – | – | – |
| Cc1cc(C(=O)N[C@@H]2CNCCC[C@H]2OC(=O)c2ccc(C(=O)c3c(O)ccc(F)c3F)cc2)cc(C)c1O [Example 25, 4-(2,3-Difluoro-6-hydroxy-benzoyl)-benzoic acid (3R,4R)3-(4-hydroxy-3,5-dimethyl-benzoylamino)-azepan-4-yl ester hydrochloride (1:1)] | 800 | – | 1000 | 14 | 40 | – |
| Cc1cc(C(=O)N[C@@H]2CNCCC[C@H]2OC(=O)c2ccc(C(=O)c3c(O)ccc4c3OCCO4)cc2)cc(C)c1O [Example 41] | > 1000 | – | 300 | 13 | 40 | – |
| COc1cc(O)c(C(=O)c2ccc(C(=O)O[C@@H]3CCCNC[C@H]3NC(=O)c3ccc(O)cc3)cc2)c(F)c1 [Example 57, 4-(2-Fluoro-6-hydroxy-4-methoxy-benzoyl)-benzoic acid (3R,4R)-3-(4-hydroxy-benzoylamino)-azepan-4-yl ester hydrochloride (1:1)] | 2000 | 300 to 600 | – | 5 | 867 | 600 |
| O=C(N[C@@H]1CNCCC[C@H]1OC(=O)c1ccc(C(=O)c2cc3ccccc3cc2O)cc1)c1ccc(O)cc1 [Example 60, 4-(3-Hydroxy-naphthalen-2-ylcarbonyl)-benzoic acid (3R,4R)-3-(4-hydroxy-benzoylamino)-azepan-4-yl ester hydrochloride (1:1)] | 2700 | 300 to 500 | 2000 to 5000 | 9 | 1200 | 300 to 6000 |
